Results from patent US20070270436A1, “NOVEL AMINO- AND IMINO-ALKYLPIPERAZINES” (Recordati Ireland Limited, priority 2006, published 2007).

Assays:
urinary bladder = test: Cystometric parameters in conscious rats after oral administration; type: in vivo, rat; details: 3 mg/kg p.o., 1-5 h after treatment
Protocol: Male Sprague-Dawley rats [Crl: CD® (SD) IGS BR] of 300-400 g body weight supplied by Charles River Italia were used. The animals were housed with free access to food and water and maintained on a forced 12-hour-light/12-hour-dark cycle at 22-24° C. of temperature, except during the experiment. To quantify urodynamic parameters in conscious rats, cystometrographic studies were performed according to the procedure previously reported (Guarneri et al., Pharmacol. Res. 24: 175, 1991).
Briefly, the rats were anaesthetised by intraperitoneal administration of 3 ml/kg of Equithensin solution (pentobarbital 30 mg/kg and chloral hydrate 125 mg/kg) and placed in a supine position. An approximately 10 mm-long midline incision was made in the shaved and cleaned abdominal wall. The urinary bladder was gently freed from adhering tissues, emptied and then cannulated via an incision in the bladder body, using a polyethylene cannula (0.58-mm internal diameter, 0.96-mm external diameter) which was permanently sutured with silk thread. The cannula was exteriorised through a subcutaneous tunnel in the retroscapular area, where it was connected to a plastic adapter in order to avoid the risk of removal by the animal. For drug testing, the rats were utilised one day after implantation.
On the day of the experiment, the rats were placed in modified Bollman cages, i.e., restraining cages that were large enough to permit the rats to adopt a normal crouched posture, but narrow enough to prevent turning around. After a stabilisation period of about 20 minutes, the free tip of the bladder cannula was connected through a T-shaped tube to a pressure transducer (Statham P23XL) and to a peristaltic pump (Gilson minipuls 2) for continues infusion of a warm (37° C.) saline solution into the urinary bladder, at a constant rate of 0.1 ml/minute. The intraluminal-pressure signal during infusion of saline into the bladder was continuously recorded on a polygraph (Rectigraph-8K San-ei with BM614/2 amplifier from Biomedica Mangoni). The cystometrogram was used to evaluate the urodynamic parameters of bladder volume capacity (BVC) and micturition pressure (MP). BVC (ml) is defined as the volume of saline infused into the bladder necessary to induce detrusor contraction followed by micturition. MP (mmHg) is defined as the maximal intravesical pressure caused by contraction during micturition. Basal BVC and MP values were evaluated as mean of the values observed in the cystometrograms recorded in an initial period of 30-60 minutes. Following determination of basal BVC and MP, the infusion was interrupted and the test compounds were administered orally by a stomach tube. Bladder infusion was resumed and changes in BVC and MP were evaluated from the mean values obtained in the cystometrograms observed during 1, 2, 3, 4 and 5 hours after treatment. Compounds were administered in a volume of 2 ml/kg and groups of control animals received the same amount of vehicle (0.5% methocel in water) orally.
Data were expressed as mean ±standard error. The percent changes of BVC and MP versus the basal values, as well as Δ values (difference in ml or mmHg) of BVC and MP (BVC or MP at time “x” minus basal value), were also evaluated for each rat/time. In the figures, data were reported as % changes versus basal values.
Statistical analysis on BVC and MP values, as well as on Δ values, was performed by S.A.S./STAT software, version 6.12. The observed differences between vehicle (control) and test treatments were evaluated on Δ values of BVC and MP, whereas the differences between the values at different times versus basal values were analyzed on original BVC and MP data.

[1] = biological target: T1, human 5HT1A-serotonergic receptor (Homo sapiens, UniProt P08908); test: Radioligand binding to recombinant 5-HT1A receptor ([3H]8-OH-DPAT, HeLa cell membranes); details: 1 nM [3H]8-OH-DPAT; Ki from IC50 by the Cheng equation; read-out: Ki (nM), binding affinity for 5HT1A receptor
T1 construct: expressed in transfected cells; host or cells: HeLa (human), stably transfected; membranes
T1 sequence (P08908 1-422): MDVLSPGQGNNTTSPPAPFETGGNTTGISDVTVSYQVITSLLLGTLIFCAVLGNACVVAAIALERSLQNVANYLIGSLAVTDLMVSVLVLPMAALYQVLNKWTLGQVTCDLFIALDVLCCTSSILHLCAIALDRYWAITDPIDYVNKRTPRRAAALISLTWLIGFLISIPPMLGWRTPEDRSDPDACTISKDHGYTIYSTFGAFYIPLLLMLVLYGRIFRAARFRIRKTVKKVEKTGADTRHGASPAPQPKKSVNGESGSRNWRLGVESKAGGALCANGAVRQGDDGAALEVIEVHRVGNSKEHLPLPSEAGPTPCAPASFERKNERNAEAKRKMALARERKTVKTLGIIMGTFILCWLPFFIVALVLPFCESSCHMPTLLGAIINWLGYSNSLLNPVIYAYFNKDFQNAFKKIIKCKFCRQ
Procedure, shortened: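 Membranes from HeLa cells stably expressing human 5-HT1A incubated 30 min at 30 °C with 1 nM [3H]8-OH-DPAT in 50 mM Tris pH 7.4, 2.5 mM MgCl2, 10 μM pargyline; non-specific binding with 10 μM 5-HT. Filtration read-out; IC50 by curve fitting, converted to Ki via Cheng-Prusoff.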

COc1ccccc1N1CCN(CCC(c2ccccc2F)C(C2CCCCC2)N(C)C(C)=O)CC1 (racemic) [Example 16, (RS,SR)- and (RS,RS)-N-{-1-Cyclohexyl-2-(2-fluorophenyl)-4-[4-(2-methoxyphenyl)piperazin-1-yl]butyl}-N-methylacetamide]
bladder volume capacity (BVC) (urinary bladder): effective in increasing
micturition pressure (MP) (urinary bladder): without significant effects
Ki [1]: 0.86 nM

COc1ccccc1N1CCN(CC[C@@H](c2ccccc2F)[C@H](NC(=S)N(C)C)C2CCCCC2)CC1 (racemic) [Example 24, 3-{(RS,SR)-1-Cyclohexyl-2-(2-fluorophenyl)-4-[4-(2-methoxyphenyl)-piperazin-1-yl]butyl}-1,1-dimethylthiourea]
bladder volume capacity (BVC) (urinary bladder): significantly increased
micturition pressure (MP) (urinary bladder): slight but significant reduction
Ki [1]: 1.23 nM
